Values quoted from earlier work, collected in US20220202699A1 (priority 2020, published 2022).

Legend:
[1] = in vivo
[2] = system: Toll-like receptors (TLR); settings: suppress innate immunity
influenza A virus [3] = system: influenza A virus
influenza A virus [4] = system: influenza A virus; remark: listed apart in the source
[5] = system: inflammatory cell infiltrates (neutrophils and lymphocytes); settings: in vivo

| SMILES | bronchodilator effect [1] | functioning as deactivators of Toll-like receptors (TLR) [2] | binding of the influenza A virus to the surrogate host cells (influenza A virus [3]) | membrane convergence of influenza A and host cell (influenza A virus [3]; influenza A, model MDCK cells) | binding affinity for the influenza A virus (influenza A virus [4]) | virus-induced proinflammatory cytokines [5] |
| --- | --- | --- | --- | --- | --- | --- |
| CC(C)(C)NCC(O)c1ccc(O)c(CO)c1 (stereo not drawn) [Albuterol] | effective bronchodilator |  |  |  |  |  |
| CCCCC/C=C\C/C=C\C/C=C\C/C=C\CCCC(=O)OC(COC(=O)CCCCCCCCCCCCCCCCC)COP(=O)(O)OC1C(O)C(O)C(O)C(O)C1O (stereo not drawn) [PI, phosphatidyl inositol] |  | deactivators of Toll-like receptors | prevent the binding | inhibited | high binding affinity | reduced |
